The values below come from US12661415B2, “Isoindolinone compounds and imaging agents for imaging Huntingtin protein” (CHDI Foundation, Inc., priority 2021, dated 2026).

Series [1] can be described thus: Unbound brain fraction (fu,brain) in mouse brain by equilibrium dialysis. In kind it is in vitro ADME. The note with it: 20% mouse brain homogenate, 5 μM, equilibrium dialysis 6 h at 37° C., average of triplicate. The procedure:
Compounds were tested for unbounded brain fraction (or free fraction in brain, fu,brain). It is an accepted standard in the CNS PET imaging field that compounds with low unbound fraction in brain (<5%) likely have high non-specific binding background that is undesirable for the detection of target binding. As a result, fu,brain is an important property in the design of PET ligands for brain imaging [see Zhang et al., Design and selection parameters to accelerate the discovery of novel central nervous system positron emission tomography (PET) ligands and their application in the development of a novel phosphodiesterase 2A PET ligand. J Med Chem 2013, 56 (11), 4568-79; Liu et al., Imaging Mutant Huntingtin Aggregates: Development of a Potential PET Ligand. J Med Chem 2020, 63 (15), 8608-8633].
Determining fu,brain in Mouse Brain by Equilibrium Dialysis. Dialysis membranes (12-14 kDa) (HTDialysis, Connecticut) were soaked in phosphate buffer (10 mM potassium phosphate and 0.8% sodium chloride buffer, pH 7.4 at 37° C.) for a minimum of 1 h, at this time ethanol was added (final concentration of 20% v/v) and membranes continued to soak for 30 min Mouse brain tissue was diluted in phosphate buffer in a […] (w/v) and homogenised using a Precellys 24 (Stretton Scientific, UK) to achieve a final concentration of 20% brain homogenate.
Test compounds prepared as DMSO stocks at 0.5 mM are diluted into brain homogenate to achieve 5 μM final substrate concentration (1% DMSO) and a t=0 sample was prepared by sampling 50 μL of into 400 μL of quench solution (Acetonitrile containing 0.1% formic acid and sulfisoxazole/tolbutamide/imipramine/labetalol 200 nM). Samples were matrix matched with the addition of 50 μL of assay buffer. The HTDialysis Teflon blocks (HTDialysis, Connecticut) were assembled with pre-soaked membrane between each receiver and donor well and clamped in the stainless steel pressure plate (HTDialysis, Connecticut). The lower compartment (acceptor side) was dosed with 120 μL of buffer and the upper compartment (donor side) was dosed with 120 μL of compound in homogenate. All test compounds and controls were completed in triplicate. The HT dialysis plate was sealed and incubated for 6 h at 37° C. shaking at 250 rpm.
Following the incubation, 50 μL of sample was removed from all donor and acceptor wells and transferred into a quench plate containing 400 μL of quench solution. All samples were matrix matched with 50 μL of the alternate blank matrix. Analytical samples were diluted 1:1 with water using the Janus Robot and analysed by LC-MS/MS.
Peak areas of donor and acceptor compartments were compared to determine percent unbound (% fu) and the average of triplicate measurements was reported. Reference T0 sample was used to calculate sample recovery (%). Control compounds were compared with historic and literature values to ensure assay functionality.
Background: Equilibrium dialysis compares concentrations on both sides of a semipermeable membrane.

Series [2] deals with T1, MBP-HTT(1-89)Q46-His(6×) (Exon1-Q46) protein aggregates (Homo sapiens, UniProt P42858, INS38QQQQQQQQQQQQQQQQQQQQQQQQQ).
T1 construct: MBP-HTT(1-89)Q46-His(6×); His(6×) (C); made in house
Kind of series: Exon1-Q46 radioligand binding assay (RBA). The note with it: aggregated Exon1-Q46 1 μM; 0.3 nM ligand [3H3-methyl]-5-((5-methoxypyridin-2-yl)methoxy)-2-(pyrazin-2-yl)benzo[d]oxazole; 60 minutes at 37° C.; read-out: Potency Range (IC50). The procedure: Exon1-Q46 Radioligand Binding Assay
For radioligand binding assays (RBA) MBP-HTT(1-89)Q46-His(6×) (“Exon1-Q46”) protein was generated based on a previous publication (Scherzinger et al. Cell, Vol. 90, 549-558, Aug. 8, 1997). For experiments 30 μM MBP-Exon1-Q46 was incubated with 150 μg/mL thrombin in assay buffer (150 mM NaCl, 50 mM Tris pH 8.0) and 2 mM CaCl2 for 16 hours at 37° C. Aggregated Exon1-Q46 was pelleted by centrifugation for 5 minutes at 13,000 rpm in a bench top centrifuge and re-dissolved in the same volume of assay buffer. Test compounds were prepared by titration in DMSO at 11 concentrations from 63 μM to 2 nM. For the RBA, Exon1-Q46 protein aggregates and test compounds were pre-incubated in assay buffer for 20 minutes at room temperature, in 100 μL/well in a 96-well plate (pp, round bottom). Then, ligand was added in 50 μL/well and incubated for 60 minutes at 37° C. Final assay concentrations were 1 μM to 30 pM test compound, 1 μM Exon1-Q46 protein (equivalent monomer concentration) and 0.3 nM ligand [^3H3-methyl]-5-((5-methoxypyridin-2-yl)methoxy)-2-(pyrazin-2-yl)benzo[d]oxazole. Samples were transferred onto GF/B filter plates and washed 2× with 200 μL PBS using a Filtermate Harvester. After drying filter plates for 1 hour at 55° C., the back of the plates were sealed with foil and 30 μL/well scintillation fluid (Packard MicroScint 40) added, incubated for 15 minutes in the dark and counted in a MicroBeta reader. For analysis, replicate data from independent assay plates were normalized towards 0% and 100% inhibition using control wells of vehicle (0% inhibition) and 1 μM unlabelled [^3H3-methyl]-5-((5-methoxypyridin-2-yl)methoxy)-2-(pyrazin-2-yl)benzo[d]oxazole (100% inhibition). IC50 values were determined with a sigmoidal inhibition model with four variables (top, bottom, slope, IC50) in a global fit using the normalized replicate data.
The results for various example compounds were as provided in the table below (+++<100 nM; ++100−500 nM; +>500 nM; ND: not determined): […]

pIC50: −log10 of the molar value.

T1 sequence (P42858 with tags, fused parts or gaps with the stated changes): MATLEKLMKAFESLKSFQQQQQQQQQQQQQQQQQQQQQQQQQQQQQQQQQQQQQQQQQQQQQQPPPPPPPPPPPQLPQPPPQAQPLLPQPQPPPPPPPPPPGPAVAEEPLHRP

`COc1ccc(COc2ccc3c(c2)CN(c2ccc(=O)n(C)n2)C3)nc1` [Comparative Compound 1, reference compound]: in series [1], the “Mean Free Brain Fraction (%)” value is 1.3%.

Consider `Cn1nc(N2Cc3cc(OCc4ccc(F)cn4)ccc3C2=O)ccc1=O` [Compound 1-1, 5-((5-Fluoropyridin-2-yl)methoxy)-2-(1-methyl-6-oxo-1,6-dihydropyridazin-3-yl)isoindolin-1-one], for which the “Mean Free Brain Fraction (%)” value in series [1] is on record as 12.0%. Besides, the pIC50 (as a rule, the negative decadic logarithm of the IC50, by convention in mol/L) in series [2] is over 7.00.

For the compound `Cn1nc(N2Cc3cc(OCc4ccc(I)cn4)ccc3C2=O)ccc1=O` [Compound 1-3, 5-[(5-Iodopyridin-2-yl)methoxy]-2-(1-methyl-6-oxo-1,6-dihydropyridazin-3-yl)-2,3-dihydro-1H-isoindol-1-one], in series [1], the “Mean Free Brain Fraction (%)” value amounted to 1.2%. In series [2], the pIC50 is over 7.00.

As for `COc1ccc(COc2ccc3c(c2)CN(c2ccncc2)C3=O)nc1` [Compound 1-4, 5-[(5-Methoxypyridin-2-yl)methoxy]-2-(pyridin-4-yl)-2,3-dihydro-1H-isoindol-1-one], the “Mean Free Brain Fraction (%)” value in series [1] stood at 3.0%. Also, the pIC50 in series [2] was over 7.00.

Consider `Cn1nc(N2Cc3cc(O)ccc3C2=O)ccc1=O` [Compound 1-5, 5-Hydroxy-2-(1-methyl-6-oxo-1,6-dihydropyridazin-3-yl)-2,3-dihydro-1H-isoindol-1-one], for which, in series [2], the pIC50 is over 7.00.

On to `COc1ccc(COc2ccc3c(c2)CN(c2ccc(=O)n(C)n2)C3=O)nc1` [Compound 1-6, 5-[(5-Methoxypyridin-2-yl)methoxy]-2-(1-methyl-6-oxo-1,6-dihydropyridazin-3-yl)-2,3-dihydro-1H-isoindol-1-one], for which the “Mean Free Brain Fraction (%)” value in series [1] was 9.8%. In series [2], the negative-log IC50 (pIC50) is over 7.00.

With `COc1cnc(COc2ccc3c(c2)CN(c2ccc(=O)n(C)n2)C3=O)c(F)c1` [Compound 1-7, 5-[(3-Fluoro-5-methoxypyridin-2-yl)methoxy]-2-(1-methyl-6-oxo-1,6-dihydropyridazin-3-yl)-2,3-dihydro-1H-isoindol-1-one], the “Mean Free Brain Fraction (%)” value in series [1] is recorded as 11.9%. Further, the pIC50 in series [2] is over 7.00.

For `[2H]C([2H])(F)C([2H])([2H])Oc1ccc(COc2ccc3c(c2)CN(c2ccc(=O)n(C)n2)C3=O)nc1` [Compound 1-8, 5-({5-[2-Fluoro(1,1,2,2-^2H4)ethoxy]pyridin-2-yl}methoxy)-2-(1-methyl-6-oxo-1,6-dihydropyridazin-3-yl)-2,3-dihydro-1H-isoindol-1-one], the “Mean Free Brain Fraction (%)” value in series [1] came out at 10.1%. For the same compound, the pIC50 in series [2] was over 7.00.

Consider `[2H]C([2H])(Oc1ccc(COc2ccc3c(c2)CN(c2ccc(=O)n(C)n2)C3=O)nc1)C([2H])([2H])OS(=O)(=O)c1ccc(C)cc1` [Compound 1-9, 2-{[6-({[2-(1-Methyl-6-oxo-1,6-dihydropyridazin-3-yl)-1-oxo-2,3-dihydro-1H-isoindol-5-yl]oxy}methyl)pyridin-3-yl]oxy}(1,1,2,2-^2H4)ethyl 4-methylbenzene-1-sulfonate], for which, in series [2], the negative logarithm of the IC50 (pIC50) was over 7.00.

On to `CC(F)Oc1ccc(COc2ccc3c(c2)CN(c2ccc(=O)n(C)n2)C3=O)nc1` (stereo not drawn) [Compound 1-10, 5-{[5-(1-Fluoroethoxy)pyridin-2-yl]methoxy}-2-(1-methyl-6-oxo-1,6-dihydropyridazin-3-yl)-2,3-dihydro-1H-isoindol-1-one], for which the “Mean Free Brain Fraction (%)” value in series [1] is 3.8%. In addition, the pIC50 in series [2] was over 7.00.

For the compound `COc1cnc(COc2ccc3c(c2)CN(c2ccc(=O)n(C)n2)C3=O)cc1Cl` [Compound 1-11, 5-[(4-Chloro-5-methoxypyridin-2-yl)methoxy]-2-(1-methyl-6-oxo-1,6-dihydropyridazin-3-yl)-2,3-dihydro-1H-isoindol-1-one], the “Mean Free Brain Fraction (%)” value in series [1] is on record as 1.6%. Further, the pIC50 in series [2] was over 7.00.

Regarding `COc1ccc(COc2ccc3c(c2)C(=O)N(c2ccc(=O)n(C)n2)C3)nc1` [Compound 1-12, 6-[(5-Methoxypyridin-2-yl)methoxy]-2-(1-methyl-6-oxo-1,6-dihydropyridazin-3-yl)-2,3-dihydro-1H-isoindol-1-one], the “Mean Free Brain Fraction (%)” value in series [1] came to 9.0%. Further, in series [2], the pIC50 is over 7.00.

As to `COc1ccc(COc2ccc3c(c2)CN(c2ccc(=O)n(C)n2)C3=O)nc1F` [Compound 1-13, 5-[(6-Fluoro-5-methoxy-2-pyridyl)methoxy]-2-(1-methyl-6-oxo-pyridazin-3-yl)isoindolin-1-one], the “Mean Free Brain Fraction (%)” value in series [1] stood at 7.0%. The pIC50 in series [2] was over 7.00.

Take `COc1cnc(COc2ccc3c(c2)CN(c2ccc(=O)n(C)n2)C3=O)cc1F` [Compound 1-14, 5-[(4-Fluoro-5-methoxypyridin-2-yl)methoxy]-2-(1-methyl-6-oxo-1,6-dihydropyridazin-3-yl)-2,3-dihydro-1H-isoindol-1-one]: the “Mean Free Brain Fraction (%)” value in series [1] is recorded as 12.0%.

In the case of `Cn1nc(N2Cc3cc(OCc4ccc(OCCF)cn4)ccc3C2=O)ccc1=O` [Compound 2-1, 5-{[5-(2-Fluoroethoxy)pyridin-2-yl]methoxy}-2-(1-methyl-6-oxo-1,6-dihydro-pyridazin-3-yl)-2,3-dihydro-1H-isoindol-1-one], the “Mean Free Brain Fraction (%)” value in series [1] is listed as 14.3%. Further, in series [2], the pIC50 was over 7.00.

Consider `Cn1nc(N2Cc3cc(OCc4ccc(O)cn4)ccc3C2=O)ccc1=O` [Compound 4-1, 5-[(5-Hydroxypyridin-2-yl)methoxy]-2-(1-methyl-6-oxo-1,6-dihydropyridazin-3-yl)-2,3-dihydro-1H-isoindol-1-one], for which the pIC50 in series [2] was over 7.00.

As to `COc1ccc(COc2ccc3c(c2)CN(Cc2ccc(OC)nc2)C3=O)nc1` [Compound 7-1, 5-[(5-Methoxypyridin-2-yl)methoxy]-2-[(6-methoxypyridin-3-yl)methyl]-2,3-dihydro-1H-isoindol-1-one], the pIC50 in series [2] was 6.30 to 7.00.

In the case of `[2H]C([2H])(F)C([2H])([2H])Oc1ccc(COc2ccc3c(c2)CN(c2ccc(=O)[nH]n2)C3=O)nc1` [Compound 9-2, 5-((5-(2-Fluoroethoxy-1,1,2,2-^2H4)pyridin-2-yl)methoxy)-2-(6-oxo-1,6-dihydropyridazin-3-yl)isoindolin-1-one], the pIC50 in series [2] is over 7.00.

Consider `[2H]C([2H])(F)C([2H])([2H])Oc1ccc(COc2cnc3c(c2)CN(c2ccc(=O)n(C)n2)C3=O)nc1` [Compound 12-9, 6-[3-([5-[2-Fluoro(1,1,2,2-^2H4)ethoxy]pyridin-2-yl]methoxy)-7-oxo-5H,6H,7H-pyrrolo[3,4-b]pyridin-6-yl]-2-methyl-2,3-dihydropyridazin-3-one], for which the pIC50 in series [2] is over 7.00.
